Source: US20240425496A1, “AZETIDINYL PYRIMIDINES AND USES THEREOF” (Aerie Pharmaceuticals, Inc., priority 2021, published 2024)

Experiments:
TYK2 = TYK2 (Homo sapiens (Human), UniProt P29597); assay: JAK kinase assay (KINASE-GLO luminescent), TYK2 enzyme; assay type: biochemical; details: TYK2 enzyme 10 nM, Abl peptide substrate
Method: (§1) All compounds were initially prepared as 10 mM stocks in anhydrous dimethylsulfoxide (DMSO). […] Test compounds were then serially diluted 1:5 in DMSO for an 11-point concentration response and further diluted in the assay buffer bringing all compound concentrations to a final range of 100 μM to 10 μM in 2.5% DMSO. […] The reaction was initiated by the addition of 10 μL of 4× stock solution ATP (2 μM). Reactions were thoroughly mixed manually, covered, and allowed to incubate at room temperature for 75 min. Protein kinase activity was quantitated using Promega's KINASE-GLO™ luminescent Kinase Assay Kit according to the manufacturer's directions. ATP concentrations remaining in Test wells following the termination of the enzymatic reaction were compared against control wells containing equivalent amounts of DMSO containing no inhibitor (CTRL). […] Percent of Control (POC) values were determined for each concentration of compound tested according to the equation: […]
(§2) IC50 values were calculated using the following 4-parameter logistic curve-fitting algorithm:
(§3) Compounds were prepared in the exact same manner as described in the ROCK Kinase Assay with the exception to the substrate and enzyme. […] All other steps and solutions remain identical to the ROCK Kinase Assay above.

JAK1 = JAK1 (Homo sapiens (Human), UniProt P23458); assay: JAK kinase assay (KINASE-GLO luminescent), JAK1 enzyme; assay type: biochemical; details: JAK1 enzyme 10 nM, Abl peptide substrate
Method: as §1, §2, §3

Sequence of JAK1 (P23458 whole entry, species assumed): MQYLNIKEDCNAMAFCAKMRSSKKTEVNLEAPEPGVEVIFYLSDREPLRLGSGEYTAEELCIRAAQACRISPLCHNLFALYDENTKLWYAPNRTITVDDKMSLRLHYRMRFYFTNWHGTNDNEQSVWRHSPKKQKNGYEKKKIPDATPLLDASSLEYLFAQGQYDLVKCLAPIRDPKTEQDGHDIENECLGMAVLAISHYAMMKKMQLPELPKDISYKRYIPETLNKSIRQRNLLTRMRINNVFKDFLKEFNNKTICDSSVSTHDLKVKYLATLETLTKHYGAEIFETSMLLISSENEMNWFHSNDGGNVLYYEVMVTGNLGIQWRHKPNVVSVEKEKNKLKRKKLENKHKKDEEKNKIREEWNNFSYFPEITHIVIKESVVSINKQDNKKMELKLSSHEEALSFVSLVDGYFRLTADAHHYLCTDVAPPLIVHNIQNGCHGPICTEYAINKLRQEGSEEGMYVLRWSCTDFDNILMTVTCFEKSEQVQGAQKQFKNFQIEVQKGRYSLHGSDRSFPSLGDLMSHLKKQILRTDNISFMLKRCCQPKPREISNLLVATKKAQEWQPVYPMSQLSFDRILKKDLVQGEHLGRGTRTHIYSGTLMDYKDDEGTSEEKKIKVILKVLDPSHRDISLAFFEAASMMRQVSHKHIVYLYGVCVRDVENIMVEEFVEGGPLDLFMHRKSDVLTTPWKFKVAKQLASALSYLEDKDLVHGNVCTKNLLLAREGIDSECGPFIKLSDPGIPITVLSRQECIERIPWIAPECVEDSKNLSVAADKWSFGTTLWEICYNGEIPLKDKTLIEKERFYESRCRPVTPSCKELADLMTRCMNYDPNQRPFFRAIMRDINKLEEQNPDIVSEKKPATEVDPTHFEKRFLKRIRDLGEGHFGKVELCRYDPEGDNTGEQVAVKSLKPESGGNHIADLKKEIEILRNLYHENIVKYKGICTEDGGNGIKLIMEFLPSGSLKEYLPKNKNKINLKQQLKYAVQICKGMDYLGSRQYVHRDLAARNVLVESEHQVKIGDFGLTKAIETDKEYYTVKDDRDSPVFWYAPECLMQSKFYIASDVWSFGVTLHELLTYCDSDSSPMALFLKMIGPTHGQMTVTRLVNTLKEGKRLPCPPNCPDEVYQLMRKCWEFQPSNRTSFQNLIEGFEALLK
Sequence of TYK2 (P29597 whole entry, species assumed): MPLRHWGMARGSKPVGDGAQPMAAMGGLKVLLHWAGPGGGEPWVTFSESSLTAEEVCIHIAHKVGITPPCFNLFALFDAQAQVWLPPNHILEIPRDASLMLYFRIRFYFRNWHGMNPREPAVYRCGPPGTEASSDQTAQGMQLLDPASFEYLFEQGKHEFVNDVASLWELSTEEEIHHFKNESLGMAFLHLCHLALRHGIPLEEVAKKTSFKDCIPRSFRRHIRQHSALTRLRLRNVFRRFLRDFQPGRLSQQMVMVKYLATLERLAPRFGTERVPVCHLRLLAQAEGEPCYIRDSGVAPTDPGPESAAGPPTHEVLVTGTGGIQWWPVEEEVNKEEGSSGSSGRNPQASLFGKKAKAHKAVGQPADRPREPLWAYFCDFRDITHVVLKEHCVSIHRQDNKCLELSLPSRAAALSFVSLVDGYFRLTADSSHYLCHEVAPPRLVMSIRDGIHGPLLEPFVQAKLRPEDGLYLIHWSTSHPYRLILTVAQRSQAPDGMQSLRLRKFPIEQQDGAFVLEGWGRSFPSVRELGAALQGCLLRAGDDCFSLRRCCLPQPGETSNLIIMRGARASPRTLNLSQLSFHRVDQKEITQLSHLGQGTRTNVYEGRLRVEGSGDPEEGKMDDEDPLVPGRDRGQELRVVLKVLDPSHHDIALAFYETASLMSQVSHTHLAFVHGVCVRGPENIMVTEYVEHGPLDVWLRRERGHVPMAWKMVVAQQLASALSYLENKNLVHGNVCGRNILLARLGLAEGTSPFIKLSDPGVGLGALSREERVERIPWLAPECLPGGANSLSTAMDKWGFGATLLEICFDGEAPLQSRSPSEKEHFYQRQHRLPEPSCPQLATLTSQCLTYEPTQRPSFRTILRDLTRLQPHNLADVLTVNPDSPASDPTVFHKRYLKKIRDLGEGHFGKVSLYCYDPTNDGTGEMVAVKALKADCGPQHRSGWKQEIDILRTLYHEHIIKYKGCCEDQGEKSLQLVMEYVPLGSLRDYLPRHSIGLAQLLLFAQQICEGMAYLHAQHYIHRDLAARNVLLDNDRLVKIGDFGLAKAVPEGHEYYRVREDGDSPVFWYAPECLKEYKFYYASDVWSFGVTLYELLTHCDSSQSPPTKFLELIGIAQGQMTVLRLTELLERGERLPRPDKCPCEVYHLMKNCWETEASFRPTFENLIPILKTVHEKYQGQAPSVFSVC

| IC50 (TYK2) | IC50 (JAK1) | SMILES |
| --- | --- | --- |
| < 10 nM | < 10 nM | Cc1cnc(Nc2cnn(C)c2)nc1N1CC(CC#N)(N2CCC3C(CC2)C3(F)F)C1 (stereo not drawn) [E160a] |
| < 500 nM | < 500 nM | Cc1cc(Nc2ncc(C)c(N3CC(CC#N)(NCC4CN(C)C4)C3)n2)sn1 [E68a] |
| < 20 nM | < 50 nM | Cc1cc(Nc2ncc(C)c(N3CC(CC#N)(N4C[C@H](C)N(C)[C@@H](C)C4)C3)n2)sn1 [E44] |
| < 50 nM | < 20 nM | Cc1cc(Nc2ncc(C)c(N3CC(CC#N)(NC(=O)c4cncc(F)c4)C3)n2)sn1 [E353] |
| < 10 nM | < 10 nM | Cc1cc(Nc2ncc(C)c(N3CC(CC#N)(N4CCN5C[C@@H](F)C[C@H]5C4)C3)n2)sn1 [E52B] |
| < 10 nM | < 10 nM | Cc1cc(Nc2ncc(C)c(N3CC(CC#N)(N4CCC5(CC4)CC5(F)F)C3)n2)sn1 [E22] |
| < 50 nM | < 50 nM | Cc1cc(Nc2ncc(C)c(N3CC(C)(CNC(=O)C4CNCC4(F)F)C3)n2)sn1 (stereo not drawn) [E286] |
| < 10 nM | < 50 nM | Cc1cnc(Nc2ccc(C3(O)COC3)cc2)nc1N1CC(CC#N)(N2CCN(C)CC2)C1 [E79a] |
| < 10 nM | < 20 nM | Cc1cc(Nc2ncc(C)c(N3CC(O)(CC#N)C3)n2)sn1 [E114a] |
| < 50 nM | < 100 nM | Cc1cc(Nc2ncc(C)c(N3CC(N)(CC#N)C3)n2)sn1 [E117-AA] |
| < 50 nM | < 50 nM | Cc1cc(Nc2ncc(C)c(N3CC(CC#N)(N4CCC5(CC4)CN(C)C5)C3)n2)sn1 [E28] |
| < 120 nM | < 100 nM | Cc1cnc(Nc2cnn(C)c2)nc1N1CC(O)(CF)C1 [E175-A] |
| < 10 nM | < 10 nM | Cc1cc(Nc2ncc(C)c(N3CC(CC#N)(NCC4CCC(F)C4)C3)n2)sn1 (stereo not drawn) [E359] |
| < 10 nM | < 10 nM | Cc1cc(Nc2ncc(C)c(N3CC(CC#N)(NC(=O)c4cccc(F)c4F)C3)n2)sn1 [E312] |
| < 10 nM | < 10 nM | Cc1cnc(Nc2cnn(C)c2)nc1N1CC(CC#N)(N2CCN3CCCC[C@H]3C2)C1 [E171a] |
| < 50 nM | < 50 nM | Cc1cnc(Nc2cnn(C)c2)nc1N1CC(CC#N)(N2CCN3C[C@H](C)C[C@H]3C2)C1 [E175a] |
| < 50 nM | < 200 nM | Cc1cc(Nc2ncc(C)c(N3CC(CC#N)(N4CCCN5CCCC5C4)C3)n2)sn1 (stereo not drawn) [E115a] |
| < 20 nM | < 30 nM | Cc1cc(Nc2ncc(C)c(N3CC(CC#N)(NC(=O)c4cc(F)cc(F)c4C)C3)n2)sn1 [E317] |
| < 50 nM | < 50 nM | Cc1cc(Nc2ncc(C)c(N3CC(CC#N)(NC(=O)C4CCCCC4(F)F)C3)n2)sn1 (stereo not drawn) [E354] |
| < 20 nM | < 20 nM | Cc1cnc(Nc2cnn(C)c2)nc1N1CC(CC#N)(N2CC3(C2)CC3(F)F)C1 [E161a] |
| < 20 nM | < 20 nM | Cc1cnc(Nc2cnn(C)c2)nc1N1CC(CC#N)(N2CCN(C)CC2)C1 [E80, 2-(1-(5-methyl-2-((1-methyl-1H-pyrazol-4-yl)amino)pyrimidin-4-yl)-3-(4-methylpiperazin-1-yl)azetidin-3-yl)acetonitrile] |
| < 10 nM | < 10 nM | Cc1cc(Nc2ncc(C)c(N3CC(CC#N)(N4CCN5CCOC[C@H]5C4)C3)n2)sn1 [E78a] |
| < 10 nM | < 10 nM | Cc1cc(Nc2ncc(C)c(N3CC(CC#N)(N4CCCC(C)C4)C3)n2)sn1 (stereo not drawn) [E15] |
| < 10 nM | < 10 nM | Cc1cc(Nc2ncc(Cl)c(N3CC(CC#N)(N4CCCCC4)C3)n2)sn1 [E25] |
| < 100 nM | < 150 nM | Cc1cc(Nc2ncc(C)c(N3CC(CC#N)(N4CC(N(C)C)C4)C3)n2)sn1 [E43] |

| IC50 (TYK2) | IC50 (JAK1) | SMILES |
| --- | --- | --- |
| < 50 nM | < 50 nM | Cc1cc(Nc2ncc(C)c(N3CC(CC#N)(NC(=O)c4ccncc4)C3)n2)sn1 [E298] |
| < 120 nM | < 250 nM | Cc1cnc(Nc2cnn(C)c2)nc1N1CC(N2CCN3C[C@H](F)C[C@H]3C2)C1 [E169a] |
| < 10 nM | < 10 nM | Cc1cc(Nc2ncc(C)c(N3CC(CC#N)(N4CCCC5(C4)CC5(F)F)C3)n2)sn1 (stereo not drawn) [E27] |
| < 10 nM | < 10 nM | Cc1cnc(Nc2cnn(C)c2)nc1N1CC(CC(F)F)(C2CC2)C1 [E165a] |
| < 200 nM | < 1000 nM | COC(=O)CC1(N2CCN3C[C@H](F)C[C@H]3C2)CN(c2nc(Nc3cnn(C)c3)ncc2C)C1 [E166a] |
| < 10 nM | < 10 nM | Cc1cc(Nc2ncc(C)c(N3CC(CC#N)(N4CCCN5CCC[C@H]5C4)C3)n2)sn1 [E87a] |
| < 5 nM | < 5 nM | Cc1cc(Nc2ncc(C)c(N3CC(CC#N)(N4CCN(CCCF)CC4)C3)n2)sn1 [E117-J] |
| < 10 nM | < 10 nM | COC(=O)CC1(N2CCN3CCC[C@H]3C2)CN(c2nc(Nc3cc(C)ns3)ncc2C)C1 [E100a] |
| < 100 nM | < 100 nM | Cc1cnc(Nc2ccc(N3CCOCC3)nc2)nc1N1CC(CCC#N)C1 [E216-S] |
| < 50 nM | < 100 nM | Cc1cc(Nc2ncc(C)c(N3CC(C4CC4)(N4CCCCC4)C3)n2)sn1 [E107a] |
| < 10 nM | < 10 nM | Cc1cnc(Nc2ccc3c(c2)CN(C)C3)nc1N1CC(CC#N)(N(C)C2CC2)C1 [E216-C] |
| < 400 nM | < 250 nM | Cc1cc(Nc2ncc(C)c(N3CC(CC#N)(N4C5CC4CN(C)C5)C3)n2)sn1 [E50] |
| < 10 nM | < 10 nM | Cc1cc(Nc2ncc(C)c(N3CC(CC#N)(N4C[C@@H]5OCCO[C@@H]5C4)C3)n2)sn1 [E92a] |
| < 50 nM | < 50 nM | Cc1cc(Nc2ncc(C)c(N3C4CC3CN(CC#N)C4)n2)sn1 [E117-V] |
| < 50 nM | < 100 nM | Cc1cc(Nc2ncc(C)c(N3CC(CC#N)(NC(C)c4cccc(F)c4)C3)n2)sn1 (stereo not drawn) [E352] |
| < 10 nM | < 10 nM | Cc1cnc(Nc2cccc(CN(C)C)c2)nc1N1CC(CC#N)(N2CCCC3(C2)CC3(F)F)C1 (stereo not drawn) [E116] |
| < 10 nM | < 10 nM | Cc1cc(Nc2ncc(C)c(N3CC(CC#N)(N4CCCC5(COC5)C4)C3)n2)sn1 [E41] |
| < 100 nM | < 20 nM | Cc1cnc(Nc2cnn(C)c2)nc1N1CC(C)(NC(=O)c2cccc(F)c2)C1 [E307] |
| < 10 nM | < 50 nM | Cc1cc(Nc2ncc(C)c(N3CC(CC#N)(N4CCN5CCCC[C@@H]5C4)C3)n2)sn1 [E85a] |
| < 10 nM | < 10 nM | Cc1cc(Nc2ncc(C)c(N3CC(CC#N)(N4CCN5CCC[C@@]5(C)C4)C3)n2)sn1 [E84a] |
| < 10 nM | < 10 nM | Cc1cnc(Nc2ccc3c(c2)CN(C)C3)nc1N1CC(CC#N)(N2CCC(F)(F)CC2)C1 [E119-A] |
| < 10 nM | < 10 nM | Cc1cc(Nc2ncc(C)c(N3CC(CC#N)(N(C)C4CC4)C3)n2)sn1 [E13] |
| < 5 nM | < 5 nM | Cc1cnc(Nc2cc(C3CC3)ns2)nc1N1CC(CC#N)(N2CCN(C)CC2)C1 [E18] |
| < 10 nM | < 20 nM | Cc1cc(Nc2ncc(C)c(N3CC(CC#N)(N4CCN5C[C@@H](F)C[C@@H]5C4)C3)n2)sn1 [E70a] |

| SMILES | IC50 (TYK2) | IC50 (JAK1) |
| --- | --- | --- |
| Cc1cc(Nc2ncc(C)c(N3CC(CC#N)(N4CC5CC(C4)N5C)C3)n2)sn1 [E52F] | < 50 nM | < 100 nM |
| Cc1cc(Nc2ncc(C)c(N3CC(CC#N)(N4CC5CCC(C4)N5C)C3)n2)sn1 [E30] | < 10 nM | < 50 nM |
